Earlier results in patent US20060286181A1, “Diet supplements for causing fast weight loss, improving daytime energy, promoting nighttime relaxation and sleep, controlling appetite and/or increasing metabolism” (priority 2005, published 2006).
Read-outs that look alike come from different tables or passages of the source. Blank lines part the entries; values can stand above or below the compound they belong to.

Experiments:
[1] = meta-analysis of forty double-blind studies
[2] = at least three clinical trials
diet-induced weight gain = conditions: mice
[3] = 8 weeks, overweight subjects
[4] = daily supplementation with moderate exercise, 8 weeks
[5] = not given; remark: listed apart in the source
fatty acid synthesis = conditions: rats
appetite = conditions: rats
ATP:citrate lyase = target: T1, ATP:citrate lyase (Homo sapiens, UniProt P53396)
T1 sequence (P53396 1-1101): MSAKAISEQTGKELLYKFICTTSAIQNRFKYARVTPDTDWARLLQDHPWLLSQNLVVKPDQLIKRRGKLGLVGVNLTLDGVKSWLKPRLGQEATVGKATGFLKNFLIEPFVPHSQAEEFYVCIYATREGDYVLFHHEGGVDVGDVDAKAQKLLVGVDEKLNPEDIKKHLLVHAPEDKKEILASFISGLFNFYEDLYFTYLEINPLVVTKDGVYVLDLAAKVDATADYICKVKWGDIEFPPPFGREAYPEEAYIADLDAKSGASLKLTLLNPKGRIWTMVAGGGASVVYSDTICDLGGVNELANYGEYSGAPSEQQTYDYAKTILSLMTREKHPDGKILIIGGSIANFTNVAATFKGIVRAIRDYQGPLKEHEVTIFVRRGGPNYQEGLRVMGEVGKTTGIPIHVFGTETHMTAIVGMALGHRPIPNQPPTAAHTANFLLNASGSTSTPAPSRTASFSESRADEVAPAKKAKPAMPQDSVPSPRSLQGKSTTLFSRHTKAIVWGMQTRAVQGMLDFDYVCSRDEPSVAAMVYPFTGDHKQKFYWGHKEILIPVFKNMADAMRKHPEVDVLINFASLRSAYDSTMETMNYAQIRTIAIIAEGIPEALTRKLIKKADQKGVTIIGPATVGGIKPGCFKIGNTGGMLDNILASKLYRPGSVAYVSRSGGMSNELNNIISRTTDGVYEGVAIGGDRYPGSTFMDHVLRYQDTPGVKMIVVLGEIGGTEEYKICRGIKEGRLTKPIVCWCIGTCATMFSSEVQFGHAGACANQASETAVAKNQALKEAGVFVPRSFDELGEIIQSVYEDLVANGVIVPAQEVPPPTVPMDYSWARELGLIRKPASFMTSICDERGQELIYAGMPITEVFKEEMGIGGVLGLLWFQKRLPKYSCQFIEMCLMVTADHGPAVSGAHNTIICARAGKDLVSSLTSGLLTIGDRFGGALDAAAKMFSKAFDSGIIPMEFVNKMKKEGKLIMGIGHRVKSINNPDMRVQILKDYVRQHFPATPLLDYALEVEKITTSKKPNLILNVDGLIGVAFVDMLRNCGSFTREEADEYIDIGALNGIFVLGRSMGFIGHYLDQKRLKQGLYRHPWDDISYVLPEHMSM

[6] = not given; remark: listed apart in the source
[7] = not given; remark: listed apart in the source
[8] = system: benzodiazepine binding site in the gamma-aminobutyric acid receptor type A (GABA(A))
[9] = in vivo

Compound: Cn1c(=O)c2c(ncn2C)n(C)c1=O [caffeine, Caffeine]
physical endurance [1]: increase physical endurance
basal metabolic rate (in vivo): increase the basal metabolic rate
weight loss (obese women): Significant weight loss
binding to and activation of adenosine receptors (adenosine receptors): binds to, but does not activate

Compound: N[C@@H](Cc1c[nH]c2ccc(O)cc12)C(=O)O [Example 5-HTP, 5-hydroxy-L-tryptophan]
weight loss, safety and efficacy [2]: safely and effectively to aid in weight loss

Compound: COc1ccc2[nH]cc(CCNC(C)=O)c2c1 [Melatonin]
diet-induced weight gain (diet-induced weight gain): reduce diet-induced weight gain

Compound: Chromium Polynicotinate
systolic blood pressure (Metabolic Syndrome; compared to control groups): effective in lowering systolic blood pressure
free radical damage in liver and kidney tissue (Metabolic Syndrome; compared to controls): less free radical damage
muscle loss [3]: sparing muscle from loss
body fat ([3]; vs placebo group): significant loss of body fat

Compound: [Cr] [chromium, Chromium]
blood cholesterol profile [4]: improved blood cholesterol profile
weight loss ([4]; vs placebo group): increased weight loss
lean mass ([5]; clinical): increase lean mass
body fat ([5]; combined with exercise): reduce body fat
HDL cholesterol ([5]; in vivo): increase HDL

inhibition of ATP:citrate lyase (ATP:citrate lyase): competitive inhibitor
Compound: O=C(O)CC(O)(C(=O)O)C(O)C(=O)O (centres unmarked) [HCA, Hydroxycitric acid]
fatty acid synthesis (fatty acid synthesis): inhibit fatty acid synthesis
appetite (appetite): repress appetite
caloric intake ([6]; clinical studies): reduction caloric intake
safety ([6]; human clinical trials): demonstrated safety
levels of serotonin ([6]; human, in vivo): significantly increased
fat oxidation during exercise ([6]; untrained men and women): increasing fat oxidation

Compound: Phosphatidylserine
cortisol levels ([7]; clinical trials): lower cortisol levels
stress ([7]; clinical trials): reduce stress
exercise capacity ([7]; human, in vivo): increase exercise capacity
mood ([7]; human, in vivo): positively affect mood

Compound: O=c1cc(-c2ccc(O)cc2)oc2cc(O)cc(O)c12 [Apigenin]
binding to benzodiazepine binding site of GABA(A) [8]: can bind
memory and motor skills [9]: without impairing memory or motor skills
sedation and locomotor activity [9]: sedation and a reduction in locomotor activity
